From patent US20150065556A1, “THERAPEUTIC TARGETS FOR MITOCHONDRIAL DISORDERS” (Whitehead Institute for Biomedical Research, priority 2013, published 2015)

How the values were obtained:
[1] = test system: KBM7 cells; test: Viability/proliferation of wild type and ATPIF1 null KBM7 cells treated with mitochondrial poisons (7-AAD, FACS); type: cell-based, human; conditions: for viability of ATPIF1 KO vs WT KBM7 cells in response to ETC inhibitors: 7AAD, FIG. 8A
Excerpt: In order to identify potential drug targets for treatment of mitochondrial disorders, we decided to use inhibitors of oxidative phosphorylation (OXPHOS) to model mitochondrial diseases and search for genes, loss-of-function of which can confer resistance to mitochondrial dysfunction caused by the poison. To that end, we explored use of a screening platform based on gene inactivation in human cells using insertional mutagenesis that has recently been developed using the KBM7 CML cell line, which is haploid for all chromosomes except chromosome 8 (5). In this system, insertional mutagenesis is accomplished using a gene trap vector. […]
For the viability assays described in this Example and Example 2, 200,000 cells were used for each sample. Cells were treated with the desired concentration of drug and viability was assessed four days later using 7-AAD and FACS analysis.
Suspension cells were kept on ice, then spun at 4000 rpm for 5 minutes at 4° C. in a table-top microcentrifuge, supernatant aspirated, cells washed once with ice-cold PBS, resuspended in ice-cold PBS with 2 ug/mL 7-AAD viability dye, incubated for 5 minutes on ice, and analyzed by FACS. For adherent cells, the overlying media and PBS used for pre-trypsinization washes was collected and combined with the suspension of trypsinized cells to gather any dead cells that may have detached into the media. The cell suspensions were kept on ice, spun at 1500 rpm for 5 minutes at 4° C. in a swinging bucket centrifuge, supernatant aspirated, cells washed once with ice-cold PBS, resuspended in ice-cold PBS with 2 ug/mL 7-AAD viability dye, incubated for 5 minutes on ice, and analyzed by FACS. Viability was assessed by 7-AAD exclusion. For HeLa, SH-SY5Y, and Malme-3M cells, 500-2,000 cells were seeded per well of white, clear-bottom 96-well plates (Greiner Bio-One), treated with drugs, and then analyzed using CellTiter-Glo according to the manufacturer's instructions (Promega). For primary hepatocytes, 100,000 cells were seeded per well of a 24-well TPP plate (Light Labs), treated with antimycin, and then analyzed using CellTiter-Glo.

[2] = test system: KBM7 cells; test: ddI-induced mtDNA depletion in WT and IF1 KO KBM7 cells (proliferation, mtDNA copy number, ATPIF1 protein); type: cell-based, human
Excerpt: mtDNA was extracted using a QiaAmp DNA Mini Kit (Qiagen) and primers specific to the mitochondrial gene ND1 and the nuclear gene Actb were used in conjunction with a SyBr Green Kit (AB) according to the manufacturer's instructions. The ratio of ND1 copies to Actb copies was used to assess the relative mtDNA/nuclear DNA copy numbers between different samples. In some experiments primers targeting the mitochondrial gene ND1 and the nuclear gene RUNX2 were used to assess mtDNA copy number by normalizing ct values of ND1 to those of RUNX2: ND1_F, CCCTAAAACCCGCCACATCT (SEQ ID NO. 14); ND1_R, GAGCGATGGTGAGAGCTAAGGT (SEQ ID NO. 15); RUNX2_F, CGCATTCCTCATCCCAGTATG (SEQ ID NO. 16); RUNX2_R, AAAGGACTTGGTGCAGAGTTCAG (SEQ ID NO. 17). Relative differences between samples were determined using the comparative Ct method.
KBM7 cells were cultured in IMDM supplemented with 10% IFS and penicillin/streptomycin, except for studies using tigecycline in which they were cultured in RPMI-1640. SH-SY5Y, HeLa, Malme-3M cells were cultured in DMEM supplemented with 10% FBS and penicillin/streptomycin. HeLa WT, HeLa ρ^0, and KBM7 cells used for ddI experiments were grown in DMEM supplemented with 10% FBS, penicillin/streptomycin, and 100 μg/mL uridine. Primary hepatocytes were cultured in Medium 199 supplemented with 10% FBS, penicillin/streptomycin, and GlutaMAX. KBM7, HeLa WT, and HeLa ρ^0 cells stably overexpressing ATPIF1 (WT or E55A) were generated via infection with retroviruses and selected with blasticidin (10 μg/mL) for three days. Malme-3M cells stably overexpressing RAP2A or ATPIF1 were generated by infection with lentiviruses expressing the corresponding cDNAs, followed by selection with puromycin (2 μg/mL) for three days. KBM7, SH-SY5Y, and HeLa cells expressing shLuc or shATPIF1 were generated by infection with lentiviruses expressing the corresponding shRNAs. All cells were infected with spin-infection using a 30 minute spin at 2,250 rpm in media containing polybrene (4 μg/mL), followed by selection one day later.
Failure to maintain proper amounts of the mitochondrial genome is a distinctive feature of a class of severe respiratory chain disorders known as mtDNA depletion syndromes (Lee and Sokol, 2007). Because of our interest in ATPIF1 inhibition as a potential strategy for ameliorating severe ETC dysfunction, we asked if loss of ATPIF1 alone was sufficient to improve cell viability during progressive mtDNA depletion. To do this, we exposed WT and IF1 KO KBM7 cells for 50 days to the drug 2′,3′-dideoxyinosine (ddI), an inhibitor of mtDNA replication, which depletes cells of their mtDNA (Lewis et al., 2003; Walker et al., 2002).

[3] = initial days of ddI treatment (Early)

CN(C)c1cc(NC(=O)CNC(C)(C)C)c(O)c2c1C[C@H]1C[C@H]3[C@H](N(C)C)C(O)=C(C(N)=O)C(=O)[C@@]3(O)C(O)=C1C2=O [tigecycline]
viability of ATPIF1 KO vs WT KBM7 cells in response to ETC inhibitors [1]: cells lacking ATPIF1 have increased viability as compared to wild type cells

C[n+]1ccc(-c2ccccc2)cc1 [MPP+, 1-methyl-4-phenylpyridinium]
viability of ATPIF1 KO vs WT KBM7 cells in response to ETC inhibitors [1]: cells lacking ATPIF1 have increased viability as compared to wild type cells

OC[C@@H]1CC[C@H](n2cnc3c(O)ncnc32)O1 [ddI, 2′,3′-dideoxyinosine]
mtDNA of WT and ATPIF1_KO KBM7 cells ([2]; by about day 25 of ddI treatment (Middle)): trace amounts of mtDNA
proliferation of ATPIF1_KO vs WT KBM7 cells ([2]; ddI, Middle (days 19-34)): significantly faster rate of proliferation
cell proliferation of WT and ATPIF1_KO KBM7 cells [2, 3]: decrease in cell proliferation
mtDNA copy number of WT and ATPIF1_KO KBM7 cells [2, 3]: immediate decrease in mtDNA copy number
ATPIF1 protein levels and activity of WT KBM7 cells ([2]; long-term exposure to ddI, FIG. 8E): greatly reduced ATPIF1 protein levels and activity

C/C=C(\C)[C@H](O)[C@H](C)/C=C(C)/C=C/C/C(C)=C/Cc1nc(OC)c(OC)c(O)c1C [piercidin A, Piericidin A]
viability of ATPIF1 KO vs WT KBM7 cells in response to ETC inhibitors [1]: cells lacking ATPIF1 have increased viability as compared to wild type cells
resistance of ATPIF1 null KBM7 cells to the poison ([1]; viability four days later, 7-AAD, FIG. 1C-D, FIG. 2): resistant
